Broadly, the IC50 is the concentration at which inhibition is half-maximal.

In the assay the target is recombinant human (rh)ACE2 (Homo sapiens, UniProt Q9BYF1). The assay is described as follows: fluorogenic exopeptidase assay. It is filed as biochemical.
Chain of recombinant human (rh)ACE2 (Q9BYF1 18-740 limits assumed): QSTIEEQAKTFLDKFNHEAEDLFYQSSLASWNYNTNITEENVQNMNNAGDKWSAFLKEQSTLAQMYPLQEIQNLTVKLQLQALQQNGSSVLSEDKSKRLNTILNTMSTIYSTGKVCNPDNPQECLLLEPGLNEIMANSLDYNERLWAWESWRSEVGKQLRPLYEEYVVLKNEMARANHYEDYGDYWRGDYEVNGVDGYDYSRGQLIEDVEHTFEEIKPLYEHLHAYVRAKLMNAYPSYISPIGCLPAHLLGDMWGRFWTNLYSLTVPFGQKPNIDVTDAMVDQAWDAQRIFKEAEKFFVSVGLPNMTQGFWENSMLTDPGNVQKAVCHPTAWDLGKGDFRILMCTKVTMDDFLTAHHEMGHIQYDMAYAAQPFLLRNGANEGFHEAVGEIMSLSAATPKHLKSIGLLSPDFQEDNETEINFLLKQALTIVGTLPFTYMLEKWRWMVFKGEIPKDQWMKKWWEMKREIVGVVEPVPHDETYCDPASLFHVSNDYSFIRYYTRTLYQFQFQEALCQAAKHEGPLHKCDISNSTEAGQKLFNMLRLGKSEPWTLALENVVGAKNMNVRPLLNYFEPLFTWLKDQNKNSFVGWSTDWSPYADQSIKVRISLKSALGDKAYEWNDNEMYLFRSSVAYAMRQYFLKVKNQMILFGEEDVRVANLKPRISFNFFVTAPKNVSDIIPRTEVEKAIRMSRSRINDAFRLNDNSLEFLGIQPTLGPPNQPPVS

On to `CC(C)C[C@H](N[C@@H](Cc1cncn1Cc1cc(Cl)cc(Cl)c1)C(=O)O)C(=O)O` [MLN-4760], for which the IC50 is 29.7 nM. Regarding `CC(C)C[C@H](N[C@@H](Cc1cncn1Cc1ccc(N)cc1)C(=O)O)C(=O)O` [compound 1, (S)-2-(((S)-2-(1-(4-aminobenzyl)-1H-imidazol-5-yl)-1-carboxyethyl)amino)-4-methylpentanoic acid], the concentration for half-maximal inhibition (IC50) is 11.3 nM.

(Values after PMC8755562 (European Journal of Medicinal Chemistry, 2022).)
